The kinase profiling compilation of Christmann-Franck et al. (2016)

What was measured:
Test in all cases: radiometric filter-binding kinase assay, Kinase HotSpot
Conditions in all cases: compound 0.5 µM; ATP 10 µM
[1] = test system: MKNK1 (human), Q9BUB5 [T385D; 165-205 del]
[2] = test system: PRKCQ (human), Q04759 [P330L]
[3] = test system: MAP2K6 (human), P52564 [S207E/T211E]
[4] = test system: FLT4 (human), P35916 [Q890H]
Sequence of FLT4 (human), P35916 [Q890H] (P35916 whole entry, looked up, stated change not applied): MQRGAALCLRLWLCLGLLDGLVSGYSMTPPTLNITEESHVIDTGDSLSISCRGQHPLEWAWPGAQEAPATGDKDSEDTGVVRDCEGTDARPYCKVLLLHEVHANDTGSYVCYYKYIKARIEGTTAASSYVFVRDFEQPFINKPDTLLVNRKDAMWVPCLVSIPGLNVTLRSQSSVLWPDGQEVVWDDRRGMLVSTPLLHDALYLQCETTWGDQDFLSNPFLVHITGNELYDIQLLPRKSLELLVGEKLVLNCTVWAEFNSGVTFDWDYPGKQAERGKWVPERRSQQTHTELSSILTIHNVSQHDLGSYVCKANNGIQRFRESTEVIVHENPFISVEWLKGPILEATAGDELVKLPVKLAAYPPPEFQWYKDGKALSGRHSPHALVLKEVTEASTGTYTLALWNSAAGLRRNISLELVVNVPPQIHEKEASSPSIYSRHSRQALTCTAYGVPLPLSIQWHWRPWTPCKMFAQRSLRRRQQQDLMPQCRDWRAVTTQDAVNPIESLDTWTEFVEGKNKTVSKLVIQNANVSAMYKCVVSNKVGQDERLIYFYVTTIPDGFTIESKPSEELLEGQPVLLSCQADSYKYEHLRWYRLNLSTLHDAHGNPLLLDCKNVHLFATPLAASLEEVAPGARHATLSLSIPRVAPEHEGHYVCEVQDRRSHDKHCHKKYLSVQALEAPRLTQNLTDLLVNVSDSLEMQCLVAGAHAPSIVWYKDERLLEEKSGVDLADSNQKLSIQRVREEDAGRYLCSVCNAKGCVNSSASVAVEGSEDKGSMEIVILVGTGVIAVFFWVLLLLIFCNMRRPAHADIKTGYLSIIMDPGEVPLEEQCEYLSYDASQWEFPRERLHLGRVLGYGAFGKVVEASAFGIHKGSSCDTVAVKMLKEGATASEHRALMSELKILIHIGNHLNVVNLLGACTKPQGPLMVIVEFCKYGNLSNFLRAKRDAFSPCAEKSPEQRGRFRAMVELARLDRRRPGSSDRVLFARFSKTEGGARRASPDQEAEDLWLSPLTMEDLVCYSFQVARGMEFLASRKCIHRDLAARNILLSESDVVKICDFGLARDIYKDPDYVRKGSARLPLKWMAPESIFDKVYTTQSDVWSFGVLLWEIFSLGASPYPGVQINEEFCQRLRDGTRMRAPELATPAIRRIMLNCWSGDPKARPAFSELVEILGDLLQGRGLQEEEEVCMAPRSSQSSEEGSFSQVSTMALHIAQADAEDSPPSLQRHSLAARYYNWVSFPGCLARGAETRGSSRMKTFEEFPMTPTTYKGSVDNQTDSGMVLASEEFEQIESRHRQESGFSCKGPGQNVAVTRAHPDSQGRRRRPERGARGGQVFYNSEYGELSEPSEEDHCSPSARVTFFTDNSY

Sequence of MAP2K6 (human), P52564 [S207E/T211E] (P52564 whole entry S207E/T211E, looked up): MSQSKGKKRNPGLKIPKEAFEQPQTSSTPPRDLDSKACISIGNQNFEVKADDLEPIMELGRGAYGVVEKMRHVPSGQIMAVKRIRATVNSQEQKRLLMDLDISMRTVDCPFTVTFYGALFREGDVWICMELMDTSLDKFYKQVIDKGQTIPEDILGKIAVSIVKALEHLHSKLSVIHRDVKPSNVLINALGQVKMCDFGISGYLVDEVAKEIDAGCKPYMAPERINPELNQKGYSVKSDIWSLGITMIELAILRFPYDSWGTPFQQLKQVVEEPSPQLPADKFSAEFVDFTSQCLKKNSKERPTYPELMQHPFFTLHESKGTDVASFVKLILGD
Sequence of PRKCQ (human), Q04759 [P330L] (Q04759 whole entry P330L, looked up): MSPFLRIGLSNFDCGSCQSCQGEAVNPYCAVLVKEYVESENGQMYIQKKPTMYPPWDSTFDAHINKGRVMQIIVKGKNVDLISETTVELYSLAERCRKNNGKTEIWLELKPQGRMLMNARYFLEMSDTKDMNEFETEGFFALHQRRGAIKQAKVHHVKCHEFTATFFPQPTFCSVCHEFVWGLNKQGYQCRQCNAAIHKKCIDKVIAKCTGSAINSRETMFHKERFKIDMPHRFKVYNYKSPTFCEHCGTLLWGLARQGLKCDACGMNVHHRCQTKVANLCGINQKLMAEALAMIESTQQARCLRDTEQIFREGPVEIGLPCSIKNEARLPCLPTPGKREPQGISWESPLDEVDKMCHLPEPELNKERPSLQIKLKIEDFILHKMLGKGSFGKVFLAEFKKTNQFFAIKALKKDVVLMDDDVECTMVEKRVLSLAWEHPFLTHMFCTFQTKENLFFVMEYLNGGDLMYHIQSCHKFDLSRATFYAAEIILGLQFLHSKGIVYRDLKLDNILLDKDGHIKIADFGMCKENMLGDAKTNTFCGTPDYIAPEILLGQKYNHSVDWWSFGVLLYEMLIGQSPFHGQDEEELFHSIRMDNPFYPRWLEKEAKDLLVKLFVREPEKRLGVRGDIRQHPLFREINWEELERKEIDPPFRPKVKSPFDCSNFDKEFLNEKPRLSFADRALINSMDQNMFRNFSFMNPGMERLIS
Sequence of MKNK1 (human), Q9BUB5 [T385D; 165-205 del] (Q9BUB5 whole entry, looked up, stated change not applied): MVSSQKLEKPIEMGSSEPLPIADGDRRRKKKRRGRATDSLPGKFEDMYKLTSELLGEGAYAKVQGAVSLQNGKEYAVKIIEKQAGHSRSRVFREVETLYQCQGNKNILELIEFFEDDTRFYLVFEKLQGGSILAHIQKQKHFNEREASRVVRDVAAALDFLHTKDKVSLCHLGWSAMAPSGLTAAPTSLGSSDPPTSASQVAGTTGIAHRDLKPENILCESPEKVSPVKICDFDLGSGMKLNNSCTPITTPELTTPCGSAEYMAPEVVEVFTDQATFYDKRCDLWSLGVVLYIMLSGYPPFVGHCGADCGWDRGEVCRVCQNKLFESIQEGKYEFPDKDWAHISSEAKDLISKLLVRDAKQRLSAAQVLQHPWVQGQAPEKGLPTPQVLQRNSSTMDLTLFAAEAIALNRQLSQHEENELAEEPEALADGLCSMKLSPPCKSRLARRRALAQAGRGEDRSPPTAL

| SMILES | residual activity [1] [%] | residual activity [2] [%] | residual activity [3] [%] | residual activity [4] [%] |
| --- | --- | --- | --- | --- |
| CCC(=O)Nc1ccc2ncnc(Nc3cccc(Br)c3)c2c1 | 82.8 | 96.3 | 94.5 | 91.5 |
| O=c1cc(N2CCOCC2)oc2c(-c3ccccc3)cccc12 | 103 | 112 | 97.5 | 96.4 |
| CCn1cnc2c(Nc3cccc(Cl)c3)nc(N[C@@H]3CCCC[C@@H]3N)nc21 | 101 | 93.3 | 100 | 105 |
| Nc1n[nH]c2nnc(-c3c(-c4ccccc4)nn4ccccc34)cc12 | 98.5 | 79.9 | 90.9 | 89.9 |
| O=C(NC(NC(=S)Nc1ccc(F)c([N+](=O)[O-])c1)C(Cl)(Cl)Cl)C(c1ccccc1)c1ccccc1 (configuration not stated) | 100 | 107 | 107 | 102 |
| O=C(Nc1cccc(Nc2nccc(Nc3cccc(C(F)(F)F)c3)n2)c1)C1CC1 | 91 | 107 | 98.3 | 95.9 |
| COc1ccc(OC)c2c(=S)c3ccccc3[nH]c12 | 115 | 98.9 | 89.9 | 98.1 |
| Clc1ccc(Nc2nnc(Cc3ccncc3)c3ccccc23)cc1 | 98.5 | 73.5 | 95.3 | 62.8 |
| O=C1NC(=O)C(c2cn(CCCn3ccnc3)c3ccccc23)=C1Nc1ccccc1 | 99.3 | 37.2 | 103 | 95.8 |
| O=C1NC(=O)c2cc(Nc3ccc(F)cc3)c(Nc3ccc(F)cc3)cc21 | 103 | 98.7 | 110 | 102 |
| Oc1ccc(-c2nc(-c3ccc(F)cc3)c(-c3ccncc3)[nH]2)cc1 | 102 | 115 | 109 | 101 |
| CC(=O)c1ccc(N2CCOCC2)cc1O | 102 | 99.5 | 94.2 | 112 |
| O=C(c1ccccc1)c1ccc(N2CCOCC2)cc1O | 103 | 92.5 | 93.5 | 112 |
| CCCC(=O)Oc1ccc2[nH]c(C(=O)c3cc4ccccc4[nH]3)cc2c1 | 101 | 111 | 97.3 | 98.2 |
| O=C1NC(=O)C(c2cn(CCCO)c3ncccc23)=C1c1cnccn1 | 100 | 81.7 | 91.1 | 92.3 |
| COc1cc2c(cc1OC)-c1[nH]nc(Nc3cccc(F)c3)c1C2 | 89.8 | 108 | 87 | 82.6 |
| O=S(=O)(NCCNC/C=C/c1ccc(Br)cc1)c1cccc2cnccc12 | 93.4 | 104 | 81.3 | 108 |
| Cc1[nH]c(/C=C2\C(=O)Nc3ccc(S(=O)(=O)N(C)c4cccc(Cl)c4)cc32)c(C)c1C(=O)N1CCN(C)CC1 | 105 | 107 | 91.9 | 55.1 |
| COc1ccc(COc2ccc(Cc3cnc(N)nc3N)cc2OC)cc1 | 113 | 98 | 87.4 | 105 |
| COc1ccc(-c2cnc3c(-c4ccsc4)cnn3c2)cc1 | 87.1 | 98.7 | 95.9 | 94.1 |
| Nc1nccc(-c2c(-c3ccc(F)cc3)ncn2C2CCNCC2)n1 | 99 | 107 | 106 | 116 |
| COc1ccc(CNC(=O)Nc2ncc([N+](=O)[O-])s2)cc1 | 98.4 | 96.9 | 85.9 | 91.2 |
| c1ccc(-c2cnc(Nc3ccc(OCCN4CCCC4)cc3)s2)cc1 | 64.7 | 91.2 | 93.6 | 64.4 |
| c1ccc(-c2n[nH]c3c2oc2ccccc23)cc1 | 96.2 | 83.8 | 92.9 | 108 |
| Cc1ccc(NC(=O)c2ccc(CN3CCN(C)CC3)cc2)cc1Nc1nc(-c2cccnc2)cs1 | 90 | 103 | 96.5 | 100 |
| Oc1cccc(-c2nc(N3CCOCC3)c3oc4ncccc4c3n2)c1 | 102 | 105 | 86.6 | 104 |
| Nc1nc(Nc2ccc(S(N)(=O)=O)cc2)nn1C(=O)c1c(F)cccc1F | 90.9 | 114 | 90.5 | 38 |

| SMILES | residual activity [1] [%] | residual activity [2] [%] | residual activity [3] [%] | residual activity [4] [%] |
| --- | --- | --- | --- | --- |
| Oc1ccc(Nc2nc(-c3ccc(Cl)cc3)cs2)cc1 | 98.9 | 123 | 94 | 101 |
| N#CCCc1ccc2c(c1)-c1[nH]c3ccc([N+](=O)[O-])cc3c1CC(=O)N2 | 66.7 | 111 | 97.2 | 66.5 |
| CC[C@@H](CO)Nc1nc(NCc2ccccc2)c2ncn(C(C)C)c2n1 | 96.4 | 90 | 98.2 | 94 |
| CC(C)N(CCC(=O)c1ccc2ccccc2c1)Cc1ccccc1 | 105 | 122 | 93.2 | 94 |
| Cc1ccc(S(=O)(=O)/C=C/C#N)cc1 | 99.4 | 100 | 98.4 | 96.5 |
| O=C1NC(=O)/C(=C\c2ccc3nccnc3c2)S1 | 96.5 | 92.8 | 91.2 | 108 |
| O=C(CCCc1ccc(-c2ccccc2F)cc1)Nc1ccc(O)cc1 | 111 | 107 | 97.5 | 99.3 |
| CC(C)c1nn(-c2c(Cl)cccc2Cl)c2nc(Cc3ccc(OCCO)cc3)nc(O)c12 | 110 | 97.3 | 92.7 | 103 |
| Cc1cc(Nc2nc(-c3ccccc3)nc3ccccc23)n[nH]1 | 93.5 | 82.3 | 93.2 | 44.9 |
| O=C1NC(=O)C(c2c[nH]c3ccccc23)=C1c1c[nH]c2ccccc12 | 115 | 33.8 | 98 | 35.2 |
| CC[n+]1c(/C=C/N(C)c2ccccc2)n(-c2ccccc2)c2ccc(-c3nc4ccccc4s3)cc21 | 102 | 94.6 | 103 | 90.9 |
| CN(C)C[C@H]1CCn2c(c(C3=C(c4cn(C)c5ccccc45)C(=O)NC3=O)c3ccccc32)C1 | 100 | 12.7 | 109 | 114 |
| COc1cc2ncnc(Nc3ccc(F)c(Cl)c3)c2cc1OCCCN1CCOCC1 | 41.9 | 85.9 | 90.1 | 92.2 |
| O=C1NC(=O)c2c1c1c3ccccc3[nH]c1c1[nH]c3cc(Br)ccc3c21 | 81.5 | 93.1 | 94.2 | 28 |
| Nc1ncnc2[nH]nc(Nc3ccc(F)cc3)c12 | 75.2 | 103 | 87.6 | 92.9 |
| CC(=O)O/N=C1\C(=C2\C(=O)Nc3cc(Br)ccc32)Nc2ccccc21 | 95.2 | 72 | 87.2 | 93.7 |
| CNC(=O)c1cc(Oc2ccc(NC(=O)Nc3ccc(Cl)c(C(F)(F)F)c3)cc2)ccn1 | 75.1 | 100 | 96.9 | 43 |
| Nc1ncnc2c1cnn2-c1ccccc1 | 81.4 | 102 | 90.8 | 108 |
| CCOc1cc2ncnc(Nc3cccc(Br)c3)c2cc1OCC | 46 | 89.2 | 92.6 | 88.1 |
| O=C(O)c1ccc2c3c1cccc3c(=O)n1c3ccccc3nc21 | 60.3 | 117 | 103 | 82.5 |
| Cc1ccc(NC2=CC(=O)c3sc(C)nc3C2=O)cc1 | 117 | 93 | 90.4 | 95.7 |
| N/C(=N\N=C/c1ccc(-c2cccc([N+](=O)[O-])c2)o1)N[N+](=O)[O-] | 97.4 | 94.6 | 111 | 86.3 |
| CC#CC(=O)Nc1cc2c(Nc3ccc(F)c(Cl)c3)ncnc2cn1 | 89.5 | 89.3 | 100 | 92.8 |
| COc1cc2c(Nc3ccc(Br)cc3F)ncnc2cc1OCC1CCN(C)CC1 | 49.3 | 100 | 96.2 | 16.1 |
| N#CC(C#N)=C(N)/C(C#N)=C/c1ccc(O)cc1 | 77.2 | 99.8 | 94 | 95.9 |
| Cn1cc(/C=C2\C(=O)Nc3ccc(S(N)(=O)=O)cc32)c2ccccc21 | 74.1 | 103 | 116 | 65.1 |
